For two compounds, TGI results are on record in PubChem BioAssay (NCI).

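Step 1: Grow cells in 96-well plates. Step 2: Expose to compound for 48 hours at 5 concentrations. Step 3: Interpolate endpoints linearly; if unreached, use highest concentration. TGI: total growth inhibition.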

Test systems include A549 NSCLC; ACHN renal; CAKI-1 renal; CCRF-CEM leukemia; HCC-2998 colon; HL-60(TB) leukemia; HS 578T breast; K-562 leukemia; LOX IMVI melanoma; MALME-3M melanoma; MDA-MB-231 breast; MDA-N; NCI-H460 lung; NCI-H522 lung; OVCAR-8 ovarian; PC-3 prostate; SK-MEL-2 melanoma; SNB-19 CNS; SW-620 colon; UACC-257 melanoma.
Test in all cases: DTP human tumour cell line panel, 48 h

Turning to `CC(C)NC(=O)OCc1c(COC(=O)NC(C)C)c(-c2cc[n+](COC(=O)C(C)C)cc2)n2c1CCC2`, the TGI with A549 NSCLC was more than 100 µM; with ACHN renal it was more than 82.7 µM; in the experiment on CAKI-1 renal, more than 94.8 µM; in the experiment on CCRF-CEM leukemia it was more than 100 µM; in the experiment on HCC-2998 colon, more than 100 µM; with HL-60(TB) leukemia it was more than 77.7 µM. Further, the TGI with HS 578T breast, in the experiment with K-562 leukemia, in the experiment on LOX IMVI melanoma, in the experiment with MALME-3M melanoma, in the experiment with MDA-MB-231 breast and in the experiment on MDA-N was more than 100 µM each time. Also, the concentration for total growth inhibition (TGI) in the experiment with NCI-H460 lung, in the experiment with NCI-H522 lung, with OVCAR-8 ovarian, with PC-3 prostate, with SK-MEL-2 melanoma and in the experiment with SNB-19 CNS was more than 100 µM each time. Besides, the total growth inhibition concentration (TGI) with SW-620 colon and in the experiment with UACC-257 melanoma was more than 100 µM throughout.
Turning to `CSc1ccc(/C=C2\N=C(c3ccccc3)N(/N=C3\C(=O)Nc4ccccc43)C2=O)cc1`, the TGI in the experiment on A549 NSCLC, with ACHN renal, with CAKI-1 renal, in the experiment on CCRF-CEM leukemia, with HCC-2998 colon and with HL-60(TB) leukemia was more than 100 µM throughout. Moreover, the TGI with HS 578T breast, with K-562 leukemia, in the experiment on LOX IMVI melanoma, in the experiment on MALME-3M melanoma, in the experiment with MDA-MB-231 breast and with MDA-N was more than 100 µM throughout. The concentration for total growth inhibition (TGI) in the experiment on NCI-H460 lung, in the experiment on NCI-H522 lung, with OVCAR-8 ovarian, with PC-3 prostate, in the experiment with SK-MEL-2 melanoma and in the experiment with SNB-19 CNS was more than 100 µM in each case. Further, the TGI in the experiment on SW-620 colon and with UACC-257 melanoma was more than 100 µM each time.
